Test results from US12661409B2, “Target validation and profiling of the RNA targets of small molecules” (priority 2018, dated 2026).

What was measured:
DNA = experiment: Microscale thermophoresis (MST) affinity for DNA; type: binding
pri-miR-96 [1] = experiment: Microscale thermophoresis (MST) affinity for pri-miR-96; type: binding
mature miR-96 [2] = experiment: RT-qPCR of mature miR-96 levels; type: cell-based; conditions: MDA-MB-231 TNBC cells; 2 complexed with Fe2+ (1 equivalent)
pri-miR-96 [3] = experiment: RT-qPCR of pri-miR-96 levels; type: cell-based
mature miR-96 [4] = conditions: triple negative breast cancer (TNBC) cells; cited from earlier work
FOXO1 protein = conditions: TNBC cells; cited from earlier work
MDA-MB-231 cells = conditions: TNBC cells; cited from earlier work

Compound | Kd (DNA) | Kd (pri-miR-96 [1]) | Effect on mature miR-96 levels (mature miR-96 [2]) | Effect on pri-miR-96 levels (pri-miR-96 [3]; MDA-MB-231 TNBC cells, 2 complexed with Fe2+ (1 equivalent)) | Competition of the pri-miR-96 cleavage caused by 2 (pri-miR-96 [3]; increasing concentrations of 1 (5 to 500 nM), constant 2 (500 nM), MDA-MB-231 cells) | Effect on production of mature miR-96 (earlier study) (mature miR-96 [4]) | Effect on FOXO1 (earlier study) (FOXO1 protein) | Effect on apoptosis (earlier study) (MDA-MB-231 cells)
Cc1c(N)nc([C@H](CC(N)=O)NC[C@H](N)C(N)=O)nc1C(=O)N[C@H](C(=O)N[C@H](C)[C@@H](O)[C@H](C)C(=O)N[C@H](C(=O)NCCc1nc(-c2nc(C(=O)NCCCNCCCCN)cs2)cs1)[C@@H](C)O)[C@@H](O[C@@H]1O[C@@H](CO)[C@@H](O)[C@H](O)[C@@H]1O[C@@H]1O[C@H](CO)[C@@H](O)[C@H](OC(N)=O)[C@@H]1O)c1cnc[nH]1 [bleomycin A5] | ~1000 nM |  |  |  |  |  |  | 
Targaprimir-96 [Compound 1] |  | 39 ± 18 nM | reduced | increased | effectively competed off | inhibited the production of mature miR-96 | de-repressed | triggered apoptosis
